# In US20210221848A1, “POLYMYXIN DERIVATIVES AND THEIR USE IN COMBINATION THERAPY TOGETHER WITH DIFFERENT ANTIBIOTICS” (priority 2014, published 2021):
# Read-outs that look alike come from different tables or passages of the source.
# Experiments:
# A. baumannii [1] = assay: MIC in 1:1 (wt:wt) combination with Rifampicin; type: cell-based, Acinetobacter baumannii; details: 1:1 (wt:wt) with Rifampicin, total drug concentration
# Method: (§1) The inoculum was prepared by making a direct suspension of isolated colonies (selected from an 18-24 hour Mueller-Hinton agar plate) adjusted to the 0.5 McFarland standard. […] The assays were performed in duplicate. […] In cases where the duplicate values varied by less than 2-fold, the lower of the two values is reported. If a variation of greater than 2-fold was observed, the assay was considered non-valid. Several of the compounds were subjected to multiple tests, and where this is the case, the MIC reflects the modal value obtained.
# (§2) MIC values (microgram/mL) refer to the total drug concentration (i.e. test agent plus Rifampicin).
# K. pneumoniae [2] = details: sole activity, Table 6C
# E. coli [3] = details: sole activity, Table 6C
# [4] = test system: K. pneumoniae strains with elevated MICs to Polymyxin B; assay: MIC against strains with elevated MICs to Polymyxin B; type: cell-based, Klebsiella pneumoniae; details: Table 6D
# In short: (§3)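 Duplicate runs; >2-fold disagreement = invalid, <2-fold = lower value kept. Inoculum: colonies (18-24 h Mueller-Hinton agar) suspended directly to 0.5 McFarland. Multiple tests → modal MIC.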
# K. pneumoniae [5] = assay: MIC in 1:1 (wt:wt) combination with Rifampicin; type: cell-based, Klebsiella pneumoniae; details: 1:1 (wt:wt) with Rifampicin, total drug concentration
# Method: as §1, §2
# P. aeruginosa [6] = assay: MIC in 1:1 (wt:wt) combination with Rifampicin; type: cell-based, Pseudomonas aeruginosa; details: 1:1 (wt:wt) with Rifampicin, total drug concentration
# Method: as §1, §2
# P. aeruginosa [7] = details: sole activity, Table 6C
# A. baumannii [8] = details: sole activity, Table 6C
# [9] = test system: P. aeruginosa strains with elevated MICs to Polymyxin B; assay: MIC against strains with elevated MICs to Polymyxin B; type: cell-based, Pseudomonas aeruginosa; details: Table 6D
# In short: as §3
# [10] = test system: E. coli strains with elevated MICs to Polymyxin B; assay: as above; type: cell-based, Escherichia coli; details: Table 6D
# In short: as §3
# [11] = test system: Acinetobacter baumannii NCTC 13301; details: mouse thigh, 16 h model
# E. coli [12] = assay: MIC in 1:1 (wt:wt) combination with Rifampicin; type: cell-based, Escherichia coli; details: 1:1 (wt:wt) with Rifampicin, total drug concentration
# Method: as §1, §2
# [13] = test system: A. baumanii strains with elevated MICs to Polymyxin B; assay: MIC against strains with elevated MICs to Polymyxin B; type: cell-based, Acinetobacter baumannii; details: Table 6D
# In short: as §3
# [14] = test system: Acinetobacter baumannii NCTC 13301; details: for Mean log10 CFU reduction vs. control: mouse lungs, A. baumannii NCTC 13301, SC at 2, 6 and 10 h post-infection, 16 h infection model
# Method: On Day 0, animals were infected with 0.04 mL inoculum by intranasal instillation into mouse nostrils and were kept in an upright position on a string rack for ˜10 min post-infection. […] The vehicle control group (7 mice) was treated with 0.9% saline for injection at 2, 6 and 10 h post-infection.
# Sixteen hours after infection, the mice were euthanized humanely. The lungs of each animal were harvested, homogenized and quantitatively cultured onto CLED agar for CFU determination. Decrease of the total CFU compared to control counts at 16 h post-infection was determined for each dose group.
substance,measurement,setting,value
(trans-5-(isobutyl- piperidine)-3- carbonyl L-Thr-L- Dap-polymyxin B heptapeptide [Example D65],"MIC in 1:1 combination with rifampicin, A. baumannii 053",A. baumannii [1]; A. baumannii 053,≤0.5 microgram/mL
same,"MIC in 1:1 combination with rifampicin, A. baumannii 056",A. baumannii [1]; A. baumannii 056,≤0.5 microgram/mL
same,"MIC, K. pneumoniae ATCC 4352",K. pneumoniae [2]; K. pneumoniae ATCC 4352,0.03 micrograms/mL
same,"MIC, K. pneumoniae ATCC BAA-2146",K. pneumoniae [2]; K. pneumoniae ATCC BAA-2146,0.125 micrograms/mL
same,"MIC, E. coli ATCC 25922",E. coli [3]; E. coli ATCC 25922,0.03 micrograms/mL
same,"MIC, E. coli NCTC 13441",E. coli [3]; E. coli NCTC 13441,0.06 micrograms/mL
same,MIC K. pneumoniae 062,"[4]; strain 062, elevated MIC to Polymyxin B",32 micrograms/mL
same,MIC K. pneumoniae 063,"[4]; strain 063, elevated MIC to Polymyxin B",8 micrograms/mL
same,MIC K. pneumoniae 064,"[4]; strain 064, elevated MIC to Polymyxin B",2 micrograms/mL
same,MIC K. pneumoniae 655,"[4]; strain 655, elevated MIC to Polymyxin B",4 micrograms/mL
same,"MIC in 1:1 combination with rifampicin, K. pneumoniae 062",K. pneumoniae [5]; K. pneumoniae 062,1 microgram/mL
same,"MIC in 1:1 combination with rifampicin, K. pneumoniae CCUG 59348",K. pneumoniae [5]; K. pneumoniae CCUG 59348,1 microgram/mL
same,"MIC in 1:1 combination with rifampicin, P. aeruginosa 063",P. aeruginosa [6]; P. aeruginosa 063,16 microgram/mL
same,"MIC in 1:1 combination with rifampicin, P. aeruginosa 068",P. aeruginosa [6]; P. aeruginosa 068,1 microgram/mL
same,"MIC, P. aeruginosa ATCC 27853",P. aeruginosa [7]; P. aeruginosa ATCC 27853,0.25 micrograms/mL
same,"MIC, P. aeruginosa CCUG 59347",P. aeruginosa [7]; P. aeruginosa CCUG 59347,0.25 micrograms/mL
same,"MIC, A. baumannii ATCC BAA-747",A. baumannii [8]; A. baumannii ATCC BAA-747,0.06 micrograms/mL
same,"MIC, A. baumannii NCTC 13424",A. baumannii [8]; A. baumannii NCTC 13424,0.125 micrograms/mL
same,MIC P. aeruginosa 065,"[9]; strain 065, elevated MIC to Polymyxin B",2 micrograms/mL
same,MIC P. aeruginosa 066,"[9]; strain 066, elevated MIC to Polymyxin B",1 micrograms/mL
same,MIC P. aeruginosa 067,"[9]; strain 067, elevated MIC to Polymyxin B",64 micrograms/mL
same,MIC E. coli 058,"[10]; strain 058, elevated MIC to Polymyxin B",1 micrograms/mL
same,MIC E. coli 059,"[10]; strain 059, elevated MIC to Polymyxin B",2 micrograms/mL
same,MIC E. coli 060,"[10]; strain 060, elevated MIC to Polymyxin B",1 micrograms/mL
same,MIC E. coli 061,"[10]; strain 061, elevated MIC to Polymyxin B",2 micrograms/mL
same,Mean log10 CFU reduction vs. control,"[11]; 0.215 mg/kg/dose free base SC at 2, 6 and 10 h post-infection",0.71 log10 CFU
same,Mean log10 CFU reduction vs. control,"[11]; 0.86 mg/kg/dose free base SC at 2, 6 and 10 h post-infection",2.40 log10 CFU
same,Mean log10 CFU reduction vs. control,"[11]; 2.6 mg/kg/dose free base SC at 2, 6 and 10 h post-infection",5.42 log10 CFU
same,Mean log10 CFU reduction vs. control,"[11]; 8.6 mg/kg/dose free base SC at 2, 6 and 10 h post-infection",6.05 log10 CFU
same,Mean log10 CFU reduction vs. control,"[11]; 17.2 mg/kg/dose free base SC at 2, 6 and 10 h post-infection",6.59 log10 CFU
same,"MIC in 1:1 combination with rifampicin, E. coli 058",E. coli [12]; E. coli 058,≤0.5 microgram/mL
same,"MIC in 1:1 combination with rifampicin, E. coli 059",E. coli [12]; E. coli 059,≤0.5 microgram/mL
same,"MIC in 1:1 combination with rifampicin, E. coli 060",E. coli [12]; E. coli 060,≤0.5 microgram/mL
same,"MIC in 1:1 combination with rifampicin, E. coli ATCC 25922",E. coli [12]; E. coli ATCC 25922,≤0.5 microgram/mL
same,MIC A. baumannii 053,"[13]; strain 053, elevated MIC to Polymyxin B",16 micrograms/mL
same,MIC A. baumannii 056,"[13]; strain 056, elevated MIC to Polymyxin B",1 micrograms/mL
same,MIC A. baumannii 068,"[13]; strain 068, elevated MIC to Polymyxin B",2 micrograms/mL
same,MIC A. baumannii 070,"[13]; strain 070, elevated MIC to Polymyxin B",4 micrograms/mL
same,efficacy compared with polymyxin B,"[14]; mouse lung, all doses (2.6, 8.6, 17.2 and 25.8 mg/kg free base), SC at 2, 6 and 10 h, 16 h",greater efficacy than observed with the equivalent dose of polymyxin B
same,Mean log10 CFU reduction vs. control,[14]; 2.6 mg/kg/dose free base,1.07 log10 CFU
same,Mean log10 CFU reduction vs. control,[14]; 8.6 mg/kg/dose free base,1.91 log10 CFU
same,Mean log10 CFU reduction vs. control,[14]; 17.2 mg/kg/dose free base,2.89 log10 CFU
same,Mean log10 CFU reduction vs. control,[14]; 25.8 mg/kg/dose free base,8.15 log10 CFU
